Test results from US20220041647A1, “ESTRA-1,3,5(10)-TRIENE COMPOUNDS CONDENSED IN POSITION 16(17) WITH A PYRAZOLE RING AS INHIBITORS OF 17-HSD1” (FORENDO PHARMA LTD, priority 2018, published 2022).

Key:
Format in all cases: biochemical
[1] = system: HSD1 enzyme that is expressed in rabbit placenta tissue; test: Inhibition of E1 to E2 conversion in rabbit placenta tissue homogenate; details: compound 100 nM, 30 nM estrone, 1 mM β-NADPH, 30 min
Procedure: The assay is based on an enzymatic reaction where HSD1 enzyme that is expressed in rabbit placenta tissue converts its natural substance estrone (E1) to estradiol (E2) in the presence of a co-factor β-NADPH.
Homogenization of rabbit placenta tissue: Weight a piece of the frozen tissue into a Precellys ck28 bead tube. Add buffer solution (20 mM KH2PO4 with 1 mM EDTA, pH 7.4) in 1:2 ratio (e.g. 300 mg of tissue:600 μl reaction buffer solution). Insert the bead tubes to homogenizer and homogenize 2×30 s. 6000 rpm.
Centrifugated 5 min., 2600 rpm at +4° C. and collect supernatant. Aliquots of homogenate are stored in −80° C.
Assay—Inhibition of E1 to E2 conversion in rabbit placenta tissue: The reaction takes place in a buffer solution (20 mM KH2PO4 with 1 mM EDTA, pH 7,4), including appropriate amount of rabbit placenta homogenate, co-factor (1 mM β-NADPH), Substrate (30 nM estrone), labelled substrate as tracer (5 nM [^3H]-estrone), and the potential inhibitor at concentrations 1 μM or 0.1 μM. Inhibitor stock solutions were prepared in DMSO. Final concentration of DMSO was adjusted to 1% in all samples. During a 30-minute incubation part of the estrone is converted to estradiol. The reaction is stopped by lowering the pH to 1 with 10% trichloro acetic acid (TCA). The substrate and conversion products are analyzed by HPLC and a Scintillation counter analyzer. Total radioactivity for estrone and estradiol were determined in each sample and percent conversion of estrone to estradiol was calculated according to the following formula:
% conversion=100×{(cpm estradiol in sample with inhibitor)/[(cpm estrone in sample with inhibitor)+(cpm estradiol in sample with inhibitor)]}/{(cpm estradiol in sample without inhibitor)/[(cpm estrone in sample without inhibitor)+(cpm estradiol in sample without inhibitor)]}.
(§1) Percent inhibition was calculated followingly: % inhibition=100−% conversion.

[2] = target: T1, recombinant human 17β-HSD1 (Homo sapiens, UniProt P14061); test: Inhibition of recombinant human 17β-HSD1 (estrone to estradiol conversion, HPLC/radioactivity); details: compound 100 nM; 30 nM estrone, 1 mM NADPH, 30 min RT
T1 construct: made in house; host or cells: Sd9 (Sf9) insect cells, baculovirus (Bac to Bac Expression System)
T1 sequence (P14061 1-328): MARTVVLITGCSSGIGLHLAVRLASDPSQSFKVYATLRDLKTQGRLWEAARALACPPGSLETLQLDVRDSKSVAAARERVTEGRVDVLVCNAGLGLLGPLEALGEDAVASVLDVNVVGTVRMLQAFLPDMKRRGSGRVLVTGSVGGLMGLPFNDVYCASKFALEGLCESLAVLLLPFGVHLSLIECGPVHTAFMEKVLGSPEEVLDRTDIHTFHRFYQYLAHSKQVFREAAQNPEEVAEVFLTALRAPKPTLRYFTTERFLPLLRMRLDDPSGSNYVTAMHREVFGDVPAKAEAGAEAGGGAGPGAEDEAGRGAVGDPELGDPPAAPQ
Procedure: 17β-HSD1 production and isolation: Recombinant baculovirus was generated by the “Bac to Bac Expression System” (Invitrogen). Recombinant bacmid was transfected to Sd9 insect cells using “Cellfectin Reagent” (Invitrogen). 60 h later cells were harvested; the microsomal fraction was isolated as described by Puranen, T. J., Poutanen, M. H., Peltoketo, H. E., Vihko, P. T. and Vihko, R. K. (1994) Site-directed mutagenesis of the putative active site of human 17 β-hydroxysteroid dehydrogenase type 1. Biochem. J. 304: 289-293. Aliquots were stored frozen until determination of enzymatic activity.
Assay—Inhibition of recombinant human 17β-HSD1: Recombinant protein (1 μg/ml) was incubated in 20 mM KH2PO4 pH 7.4 with 30 nM estrone (including 800 000 cpm/ml of ^3H-estrone) and 1 mM NADPH for 30 min at RT, in the presence of the potential inhibitor at concentrations 1 μM or 0.1 μM. Inhibitor stock solutions were prepared in DMSO. Final concentration of DMSO was adjusted to 1% in all samples. The enzyme reaction was stopped by addition of 10% trichloroacetic acid (final concentration). Samples were centrifuged in a microtiter plate at 4000 rpm for 10 min. Supernatants were applied to reverse phase HPLC on a Waters Symmetry C18 column, equipped with a Waters Sentry Guard column. Isocratic HPLC runs were performed at RT at a flow rate of 1 ml/min in acetonitrile:water 48:52 as running solvent. Radioactivity was monitored in the eluate by a Scintillation Analyzer. Total radioactivity for estrone and estradiol were determined in each sample and percent conversion of estrone to estradiol was calculated according to the following formula:
% conversion=100×{(cpm estradiol in sample with inhibitor)/[(cpm estrone in sample with inhibitor)+(cpm estradiol in sample with inhibitor)]}/{[(cpm estradiol in sample without inhibitor)/[(cpm estrone in sample without inhibitor)+(cpm estradiol in sample without inhibitor)]}.
as §1

[3] = target: T2, recombinant human 17β-HSD2 (Homo sapiens, UniProt P37059); test: Inhibition of recombinant human 17β-HSD2 (estradiol to estrone conversion, HPLC/radioactivity); details: compound 1 μM; 50 nM estradiol, 1 mM NADH, 30 min RT
T2 construct: made in house; host or cells: Sd9 (Sf9) insect cells, baculovirus (Bac to Bac Expression System)
T2 sequence (P37059 1-387): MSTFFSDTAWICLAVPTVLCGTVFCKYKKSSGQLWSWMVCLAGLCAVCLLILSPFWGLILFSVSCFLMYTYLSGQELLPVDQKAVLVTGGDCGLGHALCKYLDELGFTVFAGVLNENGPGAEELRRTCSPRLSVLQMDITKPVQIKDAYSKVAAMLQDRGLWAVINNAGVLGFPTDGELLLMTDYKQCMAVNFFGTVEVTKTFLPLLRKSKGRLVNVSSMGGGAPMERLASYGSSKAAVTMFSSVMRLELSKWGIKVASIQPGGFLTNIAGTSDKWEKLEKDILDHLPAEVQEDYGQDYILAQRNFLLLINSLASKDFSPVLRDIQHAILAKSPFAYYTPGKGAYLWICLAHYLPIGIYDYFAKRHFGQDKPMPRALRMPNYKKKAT
Procedure: 17β-HSD2 production and isolation: Similarly to 173-HSD1 the Recombinant baculovirus was generated by the “Bac to Bac Expression System” (Invitrogen). Recombinant bacmid was transfected to Sd9 insect cells using “Cellfectin Reagent” (Invitrogen). 60 h later cells were harvested and supernatant were fractionated by the following protocol: • cells were dissolved into 40 ml of A-buffer (40 mM TRIS, pH8.0, 20% glycerol, 20 μM NAD, 0.4 mM PMSF, 150 mM NaCl, 0.5% dodecyl-β-maltoside+protease inhibitor cocktail) • cells were sonicated • lysate was incubated on ice for 15 min • lysate was centrifuged 5000 rpm 15 min, +4° C. • centrifugation of the supernatant 180 000 g 30 min, +4° C. • pellet was dissolved into 8 ml of A-buffer • not resuspended material was removed by centrifugation 5000 rpm 15 min, +4° C. • the clear supernatant was divided into 100 μl aliquots and were stored frozen until determination of enzymatic activity.
The amount of 173-HSD2 was analysed by immunoblotting and total protein concentration of each extract batch was determined.
Assay—Inhibition of recombinant human 17β-HSD2: Recombinant protein (4 μg/ml) was incubated in 20 mM KH2PO4 pH 8.5 with 50 nM estradiol (including 800 000 cpm/ml of ^3H-estradiol) and 1 mM NADH for 30 min at RT, in the presence of the potential inhibitor at concentrations 1 μM or 0.1 μM. Inhibitor stock solutions were prepared in DMSO. Final concentration of DMSO was adjusted to 1% in all samples. The enzyme reaction was stopped by addition of 10% trichloroacetic acid (final concentration). Samples were centrifuged in a microtiter plate at 4000 rpm for 10 min. Supernatants were applied to reverse phase HPLC on a Waters Symmetry C18 column, equipped with a Waters Sentry Guard column. Isocratic HPLC runs were performed at RT at a flow rate of1 ml/min in acetonitrile:water 48:52 as running solvent. Radioactivity was monitored in the eluate by a Scintillation Analyzer. Total radioactivity for estrone and estradiol were determined in each sample and percent conversion of estradiol to estrone was calculated according to the following formula:
% conversion=100×{(cpm estrone in sample with inhibitor)/[(cpm estradiol in sample with inhibitor)+(cpm estrone in sample with inhibitor)]}/{[(cpm estrone in sample without inhibitor)/[(cpm estradiol in sample without inhibitor)+(cpm estrone in sample without inhibitor)]}.
as §1

| SMILES | Rabbit placenta inhibition % @100 nM [1] [%] | inhibition at 0.1 µM [2] [%] | inhibition at 1 µM [3] [%] |
| --- | --- | --- | --- |
| C[C@]12CCC3c4ccc(F)cc4CCC3C1[C@H](CCC(=O)Nc1cnccn1)c1c[nH]nc12 (stereo partly drawn) [Compound 120, 3-((8aS,12S)-4-fluoro-8a-methyl-1,2,6b,7,8,8a,10,12,12a,12b-decahydronaphtho[2′,1′:4,5]indeno[1,2-c]pyrazol-12-yl)-N-(pyrazin-2-yl)propanamide] | 34 | 67 | 4 |
| C[C@]12CCC3c4ccc(Cl)cc4CCC3C1[C@H](CCC(=O)Nc1cc(F)ccn1)c1c[nH]nc12 (stereo partly drawn) [Compound 129, 3-((8aS,12S)-4-chloro-8a-methyl-1,2,6b,7,8,8a,10,12,12a,12b-decahydronaphtho[2′1′:4,5]indeno[1,2-c]pyrazol-12-yl)-N-(4-fluoropyridin-2-yl)propanamide] | 28 | 84 | 8 |
| C[C@]12CCC3c4ccc(Cl)cc4CCC3C1[C@H](CCC(=O)Nc1cccc(F)n1)c1c[nH]nc12 (stereo partly drawn) [Compound 135, 3-((8aS,12S)-4-chloro-8a-methyl-1,2,6b,7,8,8a,10,12,12a,12b-decahydronaphtho[2,1′:4,5]indeno[1,2-c]pyrazol-12-yl)-N-(6-fluoropyridin-2-yl)propanamide] | 31 | 86 | 2 |
| C[C@]12CCC3c4ccccc4CCC3C1[C@H](CCC(=O)NC1CCOCC1)c1c[nH]nc12 (stereo partly drawn) [Compound 153, 3-((8aS,12S)-8a-methyl-1,2,6b,7,8,8a,10,12,12a,12b-decahydronaphtho[2′,1′:4,5]indeno[1,2-c]pyrazol-12-yl)-N-(tetrahydro-2H-pyran-4-yl)propanamide] | 10 | 85 | 4 |
| CN(CC1CC1)C(=O)CC[C@@H]1c2c[nH]nc2[C@@]2(C)CCC3c4ccccc4CCC3C12 (stereo partly drawn) [Compound 174, N-(cyclopropylmethyl)-N-methyl-3-((8aS,12S)-8a-methyl-1,2,6b,7,8,8a,10,12,12a,12b-decahydronaphtho[2′,1′:4,5]indeno[1,2-c]pyrazol-12-yl)propanamide] | 14 | 88 | 10 |
| C[C@]12CCC3c4ccccc4CCC3C1[C@H](CCC(=O)N1CCC3(CCOCC3)C1)c1c[nH]nc12 (stereo partly drawn) [Compound 177, 3-((8aS,12S)-8a-methyl-1,2,6b,7,8,8a,10,12,12a,12b-decahydronaphtho[2′,1′:4,5]indeno[1,2-c]pyrazol-12-yl)-1-(8-oxa-2-azaspiro[4.5]decan-2-yl)propan-1-one] | 16 | 89 | 4 |
| C[C@]12CCC3c4ccccc4CCC3C1[C@H](CCC(=O)N1Cc3ccccc3C1)c1c[nH]nc12 (stereo partly drawn) [Compound 180, 1-(isoindolin-2-yl)-3-((8aS,12S)-8a-methyl-1,2,6b,7,8,8a,10,12,12a,12b-decahydronaphtho[2′,1′:4,5]indeno[1,2-c]pyrazol-12-yl)propan-1-one] | 14 | 92 | 12 |
| CN(C)C(=O)c1ccc(NC(=O)CC[C@@H]2c3c[nH]nc3[C@@]3(C)CCC4c5ccccc5CCC4C23)nc1 (stereo partly drawn) [Compound 183, N,N-dimethyl-6-(3-((8aS,12S)-8a-methyl-1,2,6b,7,8,8a,10,12,12a,12b-decahydronaphtho[2′,1′:4,5]indeno[1,2-c]pyrazol-12-yl)propanamido)nicotinamide] | 50 | 91 | 10 |
| Cn1ccc(NC(=O)CC[C@@H]2c3c[nH]nc3[C@@]3(C)CCC4c5ccccc5CCC4C23)n1 (stereo partly drawn) [Compound 186, 3-((8aS,12S)-8a-methyl-1,2,6b,7,8,8a,10,12,12a,12b-decahydronaphtho[2′,1′:4,5]indeno[1,2-c]pyrazol-12-yl)-N-(1-methyl-1H-pyrazol-3-yl)propanamide] | 11 | 81 | 1 |
| C[C@]12CCC3c4ccccc4CCC3C1[C@H](CCC(=O)NC1CCC1)c1c[nH]nc12 (stereo partly drawn) [Compound 192, N-cyclobutyl-3-((8aS,12S)-8a-methyl-1,2,6b,7,8,8a,10,12,12a,12b-decahydronaphtho[2′,1′:4,5]indeno[1,2-c]pyrazol-12-yl)propanamide] | 14 | 86 | 2 |
